This note sets out measurements from US6649631B1, “Compositions and methods for treating bone deficit conditions” (The Board of Regents of the University of Texas System, priority 1999, dated 2003).

The test system of test [1] is BMP2 promoter. The experiment in a line: High throughput screening: BMP-2 promoter luciferase reporter in 2T3-BMP-2-LUC cells. In kind it is cell-based, mouse. An excerpt:
A rapid throughput screening test for compounds capable of stimulating expression of a reporter gene linked to a BMP promoter (a surrogate for the production of bone morphogenetic factors that are endogenously produced) is described in WO96/38590 published Dec. 5, 1996, the contents of which are incorporated herein by reference. This assay is also described as a portion of a study of immortalized murine osteoblasts (derived from a mouse expressing a transgene composed of a BMP2 promoter driving expression of T-antigen) in Ghosh-Choudhery, N. et al. Endocrinology (1996) 137:331-39. In this study, the immortalized cells were stably transfected with a plasmid containing a luciferase reporter gene driven by a mouse BMP2 promoter (−2736/114 bp), and responded in a dose-dependent manner to recombinant human BMP2.
Briefly, the assay utilizes cells transformed permanently or transiently with constructs in which the promoter of a bone morphogenetic protein, specifically BMP2 or BMP4, is coupled to a reporter gene, typically luciferase. These transformed cells are then evaluated for the production of the reporter gene product; compounds that activate the BMP promoter will drive production of the reporter protein, which can be readily assayed. Over 40,000 compounds have been subjected to this rapid screening technique, and only a very small percentage are able to elicit a level of production of luciferase 5-fold greater than that produced by vehicle. […] The active compounds (“BMP promoter-active compounds” or “active compounds”) are useful in promoting bone or cartilage growth, and thus in the treatment of vertebrates in need of bone or cartilage growth.
Several tens of thousands of compounds were tested in the assay system set forth in WO 96/38590, published Dec. 5, 1996, and incorporated herein by reference. […]
The treated cells were incubated for 24 hours at 37° C. and 5% CO2. […] Luminescence was measured on an automated 96-well luminometer, and was expressed as either picograms of luciferase activity per well or as picograms of luciferase activity per microgram of protein. […]

The subject of test [2] is ovariectomized rats. Briefly: Stimulation of bone growth in ovariectomized rats (OVX assay). The class given is in vivo, rat. On the procedure:
Lead compounds also be tested in acute ovariectomized animals (prevention model) using an in vivo dosing assay. Such assays may also include an estrogen-treated group as a control. An exemplary subcutaneous dosing assay is performed as follows:
In a typical study, 80 three-month-old female Sprague-Dawley rats are weight-matched and divided into eight groups, with ten animals in each group. This includes a baseline control group of animals sacrificed at the initiation of the study; three control groups (sham ovariectomized (sham OVX)+vehicle only; ovariectomized (OVX)+vehicle only; PBS-treated OVX); and a control OVX group that is administered a compound known to promote bone growth. Three dosage levels of the compound to be tested are administered to the remaining three groups of OVX animals.
Since ovariectomy (OVX) induces hyperphagia, all OVX animals are pair-fed with sham OVX animals throughout the 35 day study. Briefly, test compound, positive control compound, PBS, or vehicle alone is administered subcutaneously once per day for 35 days. Alternatively, test compound can be formulated in implantable pellets that are implanted for 35 days, or may be administered orally, such as by gastric gavage. All animals, including sham OVX/vehicle and OVX/vehicle groups, are injected intraperitoneally with calcein nine days and two days before sacrifice (two injections of calcein administered each designated day, to ensure proper labeling of newly formed bone). Weekly body weights are determined. At the end of the 35-day cycle, the animals' blood and tissues are processed as described above.
Lead compounds may also be tested in chronic OVX animals (treatment model). An exemplary protocol for treatment of established bone loss in ovariectomized animals that can be used to assess efficacy of anabolic agents may be performed as follows. Briefly, 80 to 100 six month old female, Sprague-Dawley rats are subjected to sham surgery (sham OVX) or ovariectomy (OVX) at time 0, and 10 rats are sacrificed to serve as baseline controls. Body weights are recorded weekly during the experiment. After approximately 6 weeks of bone depletion (42 days), 10 sham OVX and 10 OVX rats are randomly selected for sacrifice as depletion period controls. Of the remaining animals, 10 sham OVX and 10 OVX rats are used as placebo-treated controls. The remaining OVX animals are treated with 3 to 5 doses of test drug for a period of 5 weeks (35 days). As a postitive control, a group of OVX rats can be treated with an agent such as PTH, a known anabolic agent in this model (Kimmel et al. Endocrinology (1993) 132:1577-84). To determine effects on bone formation, the following procedure can be followed. The femurs, tibiae and lumbar vertebrae 1 to 4 are excised and collected. The proximal left and right tibiae are used for pqCT measurements, cancellous bone mineral density (BMD) (gravimetric determination), and histology, while the midshaft of each tibiae is subjected to cortical BMD or histology. The femurs are prepared for pqCT scanning of the midshaft prior to biomechanical testing. With respect to lumbar vertebrae (LV), LV2 are processed for BMD (pqCT may also be performed); LV3 are prepared for undecalcified bone histology; and LV4 are processed for mechanical testing.
The compound 59-0145 was tested at various concentrations in the OVX assay conducted as described above. The increase in bone volume was measured by two different groups; one group found 5 μg/kg/day of 59-0145 gave 21% increase over control whereas the second group found a 71% increase. At 50 μg/kg/day, the first group found a 31% increase, and the second a 54% increase.
In another experiment, 3 month old Sprague Dawley rats were ovariectomized and depleted for six weeks. At the end of the six weeks, treatment was started with subcutaneous administration of compound 59-0145. The treatment continued for 10 weeks. […]

The test system of test [3] is neonatal mouse calvaria. The experiment in a line: Ex vivo (neonatal mouse) calvarial bone growth assay. In kind it is cell-based. On the procedure:
This assay is similar to that described by Gowen M. & Mundy G. J Immunol (1986) 136:2478-82. Briefly, four days after birth, the front and parietal bones of ICR Swiss white mouse pups are removed by microdissection and split along the sagittal suture. The bones are incubated in BGJb medium (Irvine Scientific, Santa Ana, Calif.) plus 0.02% (or lower concentration) β-methylcyclodextrin, wherein the medium also contains test or control substances, at 37° C. in a humidified atmosphere of 5% CO2 and 95% air for 96 hours.
Following this, the bones are removed from the incubation media and fixed in 10% buffered formalin for 24-48 hours, decalcified in 14% EDTA for 1 week, processed through graded alcohols; and embedded in paraffin wax. Three μm sections of the calvaria are prepared. Representative sections are selected for histomorphometric assessment of bone formation and bone resorption. Bone changes are measured on sections cut 200 μm apart. Osteoblasts and osteoclasts are identified by their distinctive morphology.
A number of compounds, in particular, those studied in connection with lead compounds classified as hydrazone/hydrazides (H) exemplified by 59-0045, benzothiazoles (T) exemplified by 59-0104, bis-pyridines (P) exemplified by 59-0145, and quinolines/quinoxalines (Q) exemplified by 59-0197, were tested in the ex vivo calvarial assay described hereinabove.
The scores are assigned to bone formation on the ectocranial periosteal surface. The area immediately surrounding midline suture is excluded from analysis.
In all samples, toxicity, ectopic new or woven bone formation associated with osteoblasts, and osteoblast size as reflections of relative activity are noted.

Test [4] deals with TMC-23 cells. Briefly: Chondrogenic activity: alkaline phosphatase (ALP) activity in TMC-23 cells. The following applies: day 2, 10^−9 M. In kind it is cell-based, mouse.
Method: For measurement of alkaline phosphatase (ALP) activity, the technique of LF Bonewald et al. J. Biol Chem (1992) 267:8943-49, was employed. Briefly, TMC-23 cells were plated in 96 well microtiter plates in DMEM containing 10% FCS at 4×10^3 cells/well. Two days after plating, the cells were confluent and the medium was replaced with fresh medium containing 10% FCS and different concentrations of compounds or recombinant BMP-2. After an additional 2 or 5 days incubation, the plates were washed twice with PBS, and then lysing solution (0.05% Triton X-100) was added (100 μl/well). The cells were lysed by three freeze-thaw cycles of −70° C. (30 min), followed by 37° C. (30 min with shaking). Twenty microliters of cell lysates were assayed with 80 μl of 5 mM p-nitrophenol phosphate in 1.5 M 2-amino-2-methyl-propanol buffer, pH 10.3 (Sigma ALP kit, Sigma Chemical Co., St. Louis, Mo.) for 10 min at 37° C. The reaction was stopped by the addition of 100 μl of 0.5 M NaOH. The spectrophotometric absorbance at 405 nm was compared to that of p-nitrophenol standards to estimate ALP activity in the samples. The protein content of the cell lysates was determined by the Bio-Rad protein assay kit (Bio-Rad, Hercules, Calif.). Specific activity was calculated using these two parameters.
The test system of test [5] is Swiss white mice. Briefly: In vivo assay of effects of compounds on murine calvarial bone growth. More on the design: species or system mouse. The following applies: as compared to a vehicle control. On the procedure: Male ICR Swiss white mice, aged 4-6 weeks and weighing 13-26 gm, are employed, using 4-5 mice per group. The calvarial bone growth assay is performed as described in PCT application WO 95/24211. Briefly, the test compound or appropriate control vehicle is injected into the subcutaneous tissue over the right calvaria of normal mice. Typically, the control vehicle is the vehicle in which the compound was solubilized, and is PBS containing 5% DMSO or is PBS containing Tween (2 μl/10 ml). The animals are sacrificed on day 14 and bone growth measured by histomorphometry. Bone samples for quantitation are cleaned from adjacent tissues and fixed in 10% buffered formalin for 24-48 hours, decalcified in 14% EDTA for 1-3 weeks, processed through graded alcohols; and embedded in paraffin wax. Three to five μm sections of the calvaria are prepared, and representative sections are selected for histomorphometric assessment of the effects on bone formation and bone resorption. Sections are measured by using a camera lucida attachment to trace directly the microscopic image onto a digitizing plate. Bone changes are measured on sections cut 200 μm apart, over 4 adjacent 1×1 mm fields on both the injected and noninjected sides of the calvaria. […]
Similar results are obtained when new bone width in microns is measured. […]

For `N#Cc1ccc(NCCNc2ccc(C(F)(F)F)cn2)nc1` [Compound 59-0483], the “performance in the screening assay relative to 59-0008” value in test [1] is “better than 59-0008”.

On to `FC(F)(F)c1ccc(NCCNc2ccc(C(F)(F)F)cn2)nc1` [Compound 59-0145], for which the “increase in bone volume over control” value in test [2] (5 μg/kg/day, first group of measurers) is on record as 21%; in test [2] (5 μg/kg/day, second group of measurers), 71%; in test [2] (50 μg/kg/day, first group of measurers), 31%; in test [2] (50 μg/kg/day, second group of measurers) it was 54%. Moreover, the “effect on lumbar vertebrae” value in test [2] (5 and 50 μg/kg/day, FIG. 10) was “beneficial effect”. Also, the “increase in trabecular bone (proximal tibia) compared to placebo-treated group” value in test [2] (chronic OVX rats, depleted 6 weeks, subcutaneous, 10 weeks of treatment, 50-500 μg/kg/day) is on record as “significant increase”. Further, in test [3], the “activity in the ex vivo calvarial assay, in words” value (“activity … in words” below) is “consistent moderate activity”.

Turning to `CC(CNc1ccc(C(F)(F)F)cn1)Nc1ccc(C(F)(F)F)cn1` (centres unmarked) [Compound 59-0459], the “performance in the screening assay relative to 59-0008” value in test [1] is given as “better than 59-0008”.

`CN(C)c1ccc(C=Cc2cnc3ccccc3n2)cc1` [Compound 59-0019]: the “activity … in words” value in test [3] was “at least some indication of activity”.

As for `COc1cc(N(C)C)ccc1C=Cc1ccc2ccccc2n1` [Compound 59-0150], the “activity … in words” value in test [3] was “activity when measured by one group but not the other”.

For `c1ccc(N=NC2=NNc3ccccc3S2)cc1` [Compound 59-0008, 3-phenylazo-1H-4,1,2-benzothiadiazine], the “increase of ALP levels compared to the vehicle control” value in test [4] was “approximately 3 fold”. For the same compound, in test [5], the “increase in width of new calvarial bone” value stood at 4 fold. In addition, the “response at maximal activity” value in test [1] (at about 3 μM) is “approximately 175 light emission units”.
